Test system: KRAS G12V dependent lung adenocarcinoma cell line, NCI-H441
Assay: Cellular pERK (Thr202/Tyr204) FRET/HTRF assay
Format: cell-based
Text: “Ras” refers to a protein in the Ras superfamily of small GTPases, such as in the Ras subfamily. […] The Ras proteins play a critical role in the regulation of cell behaviors, including proliferation, differentiation, and survival. […] KRAS G12V, G12D, and G12S variants are common in human cancers and Ras inhibitors binding in or near the Switch II pocket may provide mutant binding selectivity. RAS mutations are known to be often associated with pancreatic, colorectal and non-small-cell lung carcinomas (Lone, A. M. et al. J. Am. Chem. Soc. 2011,133, 11665-74, which is entirely incorporated herein by reference; Dillon, M. B.; Bachovchin, D. A.; Brown, S. J.; Finn, M. G.; Rosen, H.; Cravatt, B. F.; Mowen, K. A. ACS Chem. Biol. 2012, 7, 1198-204, which is entirely incorporated herein by reference; Bachovchin, D. A.; Brown, S. J.; Rosen, H.; Cravatt, B. F. Nat. Biotechnol. 2009, 27, 387-94, Ostrem, J. M.; Peters, U.; Sos, M. L.; Wells, J. A.; Shokat, K. M. Nature 2013, 503, 548-551. Ryan M. B. and Corcoran R. B, Nat. Rev Clin Onco. 2018, 11, 709-720.). Ras proteins are key members in the Ras/Raf/Mitogen-activated protein kinase (MAPK) signaling pathway. This pathway regulates a wide variety of cellular processes, including proliferation, differentiation, apoptosis, and stress responses. One way to measure the impact of an inhibitor of Ras proteins is to measure downstream phosphorylation of proteins in the MAPK pathway. The MAPK pathway includes extracellular signal-regulated kinases named ERK1 and ERK2, which are serine-threonine kinases that regulate cellular signaling under both normal and oncogenic conditions. ERK expression and hyperactivation via phosphorylation plays a major role in cancer progression and are downstream of Ras proteins. The assay used for measuring the downstream impact of Ras inhibition is the use of a highly sensitive cell-based readout of ERK phosphorylation (pERK) specifically on Threonine (Thr) 202 and Tyrosine (Tyr) 204 in a KRAS G12V dependent lung adenocarcinoma cell line, NCI-H441 (ATCC Cat #HTB-174). The assay described herein is suitable for assessing inhibition of Ras and can be tailored for any of the predominant oncogenic mutations in any isoform of Ras (e.g., KRAS, HRAS, and NRAS) by changing the cell line.
pERK was measured using an advanced pERK assay designed for the robust and highly sensitive quantification of ERK phosphorylation on Thr202/Tyr204. This assay is intended for the simple, rapid, and direct detection of endogenous levels of ERK1/2 in cells, but only when ERK is phosphorylated at Thr202 and Tyr204 (Perkin Elmer Catalog #64AERPEH). pERK was detected in a FRET based sandwich assay format using 2 different specific antibodies, one labelled with Eu3+-Cryptate (donor) and the second with d2 (acceptor). When the dyes are in close proximity, the excitation of the donor with a light source (laser or flash lamp) triggers a Fluorescence Resonance Energy Transfer (FRET) towards the acceptor, which in turn fluoresces at a specific wavelength (665 nm). The specific signal modulates positively in proportion to p-ERK1/2 (Thr202/Tyr204). The simple mix-and-read protocol eliminates all wash steps for faster analysis and high-quality output. Briefly, cells were diluted to the desired concentration per well based on a growth curve showing ˜75% confluence within a 24-hour time period at no less than 95% viability. Cell suspension (24 μL) were added into each well of 384-well culture plate and maintained in 37° C. 5% CO2 incubator overnight prior to assay. All compounds were transferred to stock plates using TECAN (EVO200) liquid handler using DMSO as the solubilizing and dilution agent. Test compounds were transferred onto adherent cells using an Echo655 liquid handler. DMSO was employed as negative control. Cells were incubated with test compounds for 1 hr in a 37° C., 5% CO2 incubator following compound addition. […]

[1] = Homo sapiens, NCI-H441, cellular pERK (Thr202/Tyr204) HTRF, NCI-H441 cells
[2] = cellular pERK HTRF, NCI-H441 (KRAS G12V) cells
[3] = cellular pERK (Thr202/Tyr204) HTRF, NCI-H441 cells

| IC50 [3] | SMILES | further results |
| --- | --- | --- |
|  | C=C1CN2CCC[C@@]2(COc2nc(N3CCOC[C@H]4[C@H](F)[C@H]43)c3cc(C(F)(F)F)c(-c4ccc(F)c5sc(N)c(C#N)c45)c(F)c3n2)C1 (atropisomer, axis not shown) [Example 432, 2-amino-7-fluoro-4-((S)-8-fluoro-4-((1S,7S,8S)-8-fluoro-5-oxa-2-azabicyclo[5.1.0]octan-2-yl)-2-(((S)-2-methylenetetrahydro-1H-pyrrolizin-7a(5H)-yl)methoxy)-6-(trifluoromethyl)quinazolin-7-yl)benzo[b]thiophene-3-carbonitrile] | IC50 [1]: < 50 nM |
|  | C=C1CN2CCC[C@@]2(COc2nc(N3CCOC[C@H]4[C@H](F)[C@H]43)c3cc(C(F)(F)F)c(-c4ccc(F)c5sc(N)c(C#N)c45)c(F)c3n2)C1 (atropisomer, axis not shown) [Example 433, 2-amino-7-fluoro-4-((R)-8-fluoro-4-((1S,7S,8S)-8-fluoro-5-oxa-2-azabicyclo[5.1.0]octan-2-yl)-2-(((S)-2-methylenetetrahydro-1H-pyrrolizin-7a(5H)-yl)methoxy)-6-(trifluoromethyl)quinazolin-7-yl)benzo[b]thiophene-3-carbonitrile] | IC50 (Homo sapiens, NCI-H441, cellular pERK HTRF, NCI-H441 (KRAS G12V) cells): 500 to 10000 nM |
|  | N#Cc1c(N)sc2c(F)ccc(-c3c(C(F)(F)F)cc4c(N5CCOC[C@H]6[C@H](F)[C@H]65)nc(OC[C@@]56CCCN5CC(=C(F)F)C6)nc4c3F)c12 (atropisomer, axis not shown) [Example 438, 2-amino-4-((R)-2-(((S)-2-(difluoromethylene)tetrahydro-1H-pyrrolizin-7a(5H)-yl)methoxy)-8-fluoro-4-((1S,7S,8S)-8-fluoro-5-oxa-2-azabicyclo[5.1.0]octan-2-yl)-6-(trifluoromethyl)quinazolin-7-yl)-7-fluorobenzo[b]thiophene-3-carbonitrile] | IC50 [2]: 500 to 10000 nM |
|  | N#Cc1c(N)sc2c(F)ccc(-c3c(C(F)(F)F)cc4c(N5CCOC[C@H]6[C@H](F)[C@H]65)nc(OC[C@@]56CCCN5CC(=C(F)F)C6)nc4c3F)c12 (atropisomer, axis not shown) [Example 439, 2-amino-4-((S)-2-(((S)-2-(difluoromethylene)tetrahydro-1H-pyrrolizin-7a(5H)-yl)methoxy)-8-fluoro-4-((1S,7S,8S)-8-fluoro-5-oxa-2-azabicyclo[5.1.0]octan-2-yl)-6-(trifluoromethyl)quinazolin-7-yl)-7-fluorobenzo[b]thiophene-3-carbonitrile] | IC50 [2]: < 50 nM |
| < 50 nM | [2H]C([2H])(Oc1nc(N2CCOC[C@H]3[C@H](F)[C@H]32)c2cc(C#N)c(-c3ccc(F)c4sc(N)c(C#N)c34)c(F)c2n1)[C@@]12CCCN1C[C@H](F)C2 (atropisomer, axis not shown; (aS)) [Example 349, (S)-7-(2-amino-3-cyano-7-fluorobenzo[b]thiophen-4-yl)-8-fluoro-4-((1S,7S,8S)-8-fluoro-5-oxa-2-azabicyclo[5.1.0]octan-2-yl)-2-(((2R,7aS)-2-fluorotetrahydro-1H-pyrrolizin-7a(5H)-yl)methoxy-d2)quinazoline-6-carbonitrile] |  |
| 500 to 10000 nM | [2H]C([2H])(Oc1nc(N2CCOC[C@H]3[C@H](F)[C@H]32)c2cc(C#N)c(-c3ccc(F)c4sc(N)c(C#N)c34)c(F)c2n1)[C@@]12CCCN1C[C@H](F)C2 (atropisomer, axis not shown; (aS)) [Example 351, (R)-7-(2-amino-3-cyano-7-fluorobenzo[b]thiophen-4-yl)-8-fluoro-4-((1S,7S,8S)-8-fluoro-5-oxa-2-azabicyclo[5.1.0]octan-2-yl)-2-(((2R,7aS)-2-fluorotetrahydro-1H-pyrrolizin-7a(5H)-yl)methoxy-d2)quinazoline-6-carbonitrile] |  |
|  | [2H]C([2H])(Oc1nc(N2CCOC[C@H]3[C@H](F)[C@H]32)c2cc(Cl)c(-c3ccc(F)c4sc(N)c(C#N)c34)c(F)c2n1)[C@@]12CCCN1C[C@H](F)C2 (atropisomer, axis not shown; (aS)) [Example 352, 2-amino-4-((S)-6-chloro-8-fluoro-4-((1S,7S,8S)-8-fluoro-5-oxa-2-azabicyclo[5.1.0]octan-2-yl)-2-(((2R,7aS)-2-fluorotetrahydro-1H-pyrrolizin-7a(5H)-yl)methoxy-d2)quinazolin-7-yl)-7-fluorobenzo[b]thiophene-3-carbonitrile] | IC50 [1]: 500 to 10000 nM |
| 500 to 10000 nM | [2H]C([2H])(Oc1nc(N2CCOC[C@H]3[C@H](F)[C@H]32)c2cc(F)c(-c3ccc(F)c4sc(N)c(C#N)c34)c(F)c2n1)[C@@]12CCCN1C[C@H](F)C2 (atropisomer, axis not shown; (aS)) [Example 356, 2-amino-4-((R)-6,8-difluoro-4-((1S,7S,8S)-8-fluoro-5-oxa-2-azabicyclo[5.1.0]octan-2-yl)-2-(((2R,7aS)-2-fluorotetrahydro-1H-pyrrolizin-7a(5H)-yl)methoxy-d2)quinazolin-7-yl)-7-fluorobenzo[b]thiophene-3-carbonitrile] |  |
| < 50 nM | [2H]C([2H])(Oc1nc(N2CCOC[C@H]3[C@H](F)[C@H]32)c2cc(F)c(-c3ccc(F)c4sc(N)c(C#N)c34)c(F)c2n1)[C@@]12CCCN1C[C@H](F)C2 (atropisomer, axis not shown; (aS)) [Example 357, 2-amino-4-((S)-6,8-difluoro-4-((1S,7S,8S)-8-fluoro-5-oxa-2-azabicyclo[5.1.0]octan-2-yl)-2-(((2R,7aS)-2-fluorotetrahydro-1H-pyrrolizin-7a(5H)-yl)methoxy-d2)quinazolin-7-yl)-7-fluorobenzo[b]thiophene-3-carbonitrile] |  |
| < 50 nM | [2H]C([2H])(Oc1nc(N2CCOC[C@H]3[C@H](F)[C@H]32)c2cc(C#N)c(-c3cc(N)cc4ccc(F)c(C#C)c34)c(F)c2n1)[C@@]12CCCN1C[C@H](F)C2 (atropisomer, axis not shown; (aS)) [Example 358, (S)-7-(3-amino-8-ethynyl-7-fluoronaphthalen-1-yl)-8-fluoro-4-((1S,7S,8S)-8-fluoro-5-oxa-2-azabicyclo[5.1.0]octan-2-yl)-2-(((2R,7aS)-2-fluorotetrahydro-1H-pyrrolizin-7a(5H)-yl)methoxy-d2)quinazoline-6-carbonitrile] |  |
| < 50 nM | [2H]C([2H])(Oc1nc(N2CCOC[C@H]3[C@H](F)[C@H]32)c2cc(Cl)c(-c3cc(N)cc4ccc(F)c(C#C)c34)c(F)c2n1)[C@@]12CCCN1C[C@H](F)C2 (atropisomer, axis not shown; (aS)) [Example 359, 4-((R)-6-chloro-8-fluoro-4-((1S,7S,8S)-8-fluoro-5-oxa-2-azabicyclo[5.1.0]octan-2-yl)-2-(((2R,7aS)-2-fluorotetrahydro-1H-pyrrolizin-7a(5H)-yl)methoxy-d2)quinazolin-7-yl)-5-ethynyl-6-fluoronaphthalen-2-amine] |  |
| 500 to 10000 nM | [2H]C([2H])(Oc1nc(N2CCOC[C@H]3[C@H](F)[C@H]32)c2cc(C#N)c(-c3cc(N)cc4ccc(F)c(C#C)c34)c(F)c2n1)[C@@]12CCCN1C[C@H](F)C2 (atropisomer, axis not shown; (aS)) [Example 360, (R)-7-(3-amino-8-ethynyl-7-fluoronaphthalen-1-yl)-8-fluoro-4-((1S,7S,8S)-8-fluoro-5-oxa-2-azabicyclo[5.1.0]octan-2-yl)-2-(((2R,7aS)-2-fluorotetrahydro-1H-pyrrolizin-7a(5H)-yl)methoxy-d2)quinazoline-6-carbonitrile] |  |

Reference: patent US20250282799A1, “SUBSTITUTED PYRIDO[4,3-d]PYRIMIDINES AS KRAS MODULATORS” (Alterome Therapeutics, Inc., priority 2023, published 2025)
